According to ChEMBL document CHEMBL4831479, “Discovery of Novel Thiophene-arylamide Derivatives as DprE1 Inhibitors with Potent Antimycobacterial Activities” (J Med Chem, 2021):
In brackets after ≈: the same amount, converted by molar mass.

Columns and labels:
[1] = tested on: Mycobacterium tuberculosis; assay: Non-covalent inhibition of DprE1 in PBTZ169-resistant Mycobacterium tuberculosis measured after 7 days by microplate Alamar blue assay; conditions: time 7.0 day
[2] = tested on: Mycobacterium tuberculosis; assay: Non-covalent inhibition of DprE1 in bedaquiline-resistant Mycobacterium tuberculosis measured after 7 days by microplate Alamar blue assay; conditions: time 7.0 day

SMILES | MIC [1] | MIC [2]
CCOC(=O)NC(=O)c1ccsc1NC(=O)c1ccc(C(=O)N2CCCCC2)c(F)c1 | 0.062 µg/mL (≈ 0.139 µM) | 0.054 µg/mL (≈ 0.121 µM)
COC(=O)NC(=O)c1ccsc1NC(=O)c1ccc(C(=O)N2CCCCC2)cc1 | 0.48 µg/mL (≈ 1.16 µM) | 
CCOC(=O)NC(=O)c1ccsc1NC(=O)c1ccc(C(=O)N2CCCCC2)cc1 | 0.14 µg/mL (≈ 0.326 µM) | 
